The values below come from patent publication US20040121410A1, “Pain signaling molecules” (priority 2002, published 2004).

Assay [1] relates to FLRFa-induced calcium release in HEK-MrgA1. As to the kind of experiment: FLRFa-induced [Ca2+]i response in HEK-MrgA1 with pathway inhibitors. The conditions noted are these: HEK-MrgA1, 3 μM FLRFa; 10 μM U73122 or U73343 10 min pretreatment; 1 μM TG in 2 mM EGTA. It counts as cell-based, human. As to the method:
(§1) Cells loaded with Fura-2/AM were stimulated with each agonist and fluorescence was recorded. Graphs represent an average plot of [Ca^2+]i measurements versus time (in s) in a minimum of 8 cells from representative experiments. Individual data points represent images taken at 0.8-s intervals. […] After a 10 minute pretreatment with U73122 and U73343, each agonist was added. FIGS. 2B and E show the extracellular [Ca^2+] dependency of Ca^2+ mobilization. Cells were preincubated for 2 minutes with 2 mM EGTA (open circles) or normal medium containing 1.2 mM calcium (closed circles) and then 3 μM FLRFa or 1 μM γ2-MSH was added. […] In the presence of 2 mM EGRA, TG (1 μM final concentration) was added to deplete internal Ca^2+ stores.
(§2) The calcium source responsible for the initial peak in [Ca^2+]i was determined by depleting internal calcium stores with the application of 1 μM TG (FIGS. 2C and F).
(§3) Heterotrimeric G proteins of the Gαi and Gαq class are involved in the propagation of signals from GPCRs leading to [Ca^2+]i elevation (Guderman et al. Ann. Rev. Pharmacol. Toxicol. 36:429-459 (1996)). To determine whether Gαi/o proteins are involved in the [Ca^2+]i response, we pretreated HEK-MrgA1 or HEK-MrgC11 cells with PTX (100 ng/ml) for 16 h. […] The dose dependency in [Ca^2+]i responses for both receptors were not affected by PTX (FIGS. 4A and D).

The subject of assay [2] is γ2-MSH-induced calcium release in HEK-MrgC11. As to the kind of experiment: γ2-MSH-induced [Ca2+]i response in HEK-MrgC11 with pathway inhibitors. Type of assay: cell-based, human. The conditions noted are these: HEK-MrgC11, 1 μM γ2-MSH; 10 μM U73122 or U73343 10 min pretreatment; 1 μM TG in 2 mM EGTA. As to the method:
as §1, §2, §3

The target in another assay is T1, MrgA1 (Mus musculus, UniProt Q91WW5).
T1 construct: expressed in transfected cells
T1 sequence (Q91WW5 1-304): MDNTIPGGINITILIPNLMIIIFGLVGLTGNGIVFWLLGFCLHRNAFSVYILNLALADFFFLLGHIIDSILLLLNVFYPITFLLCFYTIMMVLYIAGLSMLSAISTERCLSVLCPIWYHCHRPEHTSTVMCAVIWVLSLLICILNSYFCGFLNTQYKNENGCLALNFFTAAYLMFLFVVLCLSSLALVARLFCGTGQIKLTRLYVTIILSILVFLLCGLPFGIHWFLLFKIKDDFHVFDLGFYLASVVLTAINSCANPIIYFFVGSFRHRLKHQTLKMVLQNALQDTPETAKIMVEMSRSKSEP
As to the kind of experiment: calcium-mobilization assay (FLEXstation, Fura-2/AM) in HEK-MrgA1 cells. Type of assay: cell-based. As to the method: (§4) To address the questions of the ligand selectivity of the MrgC11 receptor, human embryonic kidney (HEK) 293 cells stably expressing either MrgA1 or MrgC11 were established. Neuropeptides were screened to identify ligands and agonists.
(§5) HEK293 cells were transfected with cDNA encoding the MrgAl-GFP, mNPFF2-GFP or MrgC11-GFP in pcDNA3.1/Zio(+) plasmid (Invitrogen) using the FuGENE6 transfection reagent (Roche Molecular Biomolecules). The transfected cells were selected with 400 μg/ml zeocin in DMEM supplemented with 10% FBS. Each cloned cell was further selected for membrane localization of receptor-GFP fusion protiens.
(§6) The selected cells were maintained in the same medium supplemented with 200 μg/ml zeocin. The stable cell lines were designated HEK-MrgA1, HEK-NPFF2 and HEK-MrgC11.
(§7) To identify putative ligands for MrgC11 and MrgA1 receptors, HEK-MrgC11 or HEKMrgA1 stable cell lines were screened in a calcium-mobilization assay using a fluorescence-imaging plate reader (FLEXstation). Briefly, HEK-MrgA1 or HEK-MrgC11 were plated in 96-black-well plates (Corning) and grown to confluence. After incubation with Fura-2/AM for >20 min, cells were washed and equilibrated for 20 min with HBSS (Hanks' balanced salt solution) assay buffer. The fluorescence emission caused by intracellular calcium mobilization elicited by agonists was determined by using a fluorometric imaging plate reader, Flexstation (Molecular Devices). All peptides were from Phoenix Pharmaceuticals (St. Joseph, Mo.), Bachem, American Peptide (Sunnyvale, Calif.), or Sigma.

Another assay has as its target T2, MrgC11 (Mus musculus, UniProt Q8CIP3).
T2 construct: A full-length MrgC11 cDNA was cloned from the newborn DRG cDNA library; expressed in transfected cells
T2 sequence (Q8CIP3 1-322): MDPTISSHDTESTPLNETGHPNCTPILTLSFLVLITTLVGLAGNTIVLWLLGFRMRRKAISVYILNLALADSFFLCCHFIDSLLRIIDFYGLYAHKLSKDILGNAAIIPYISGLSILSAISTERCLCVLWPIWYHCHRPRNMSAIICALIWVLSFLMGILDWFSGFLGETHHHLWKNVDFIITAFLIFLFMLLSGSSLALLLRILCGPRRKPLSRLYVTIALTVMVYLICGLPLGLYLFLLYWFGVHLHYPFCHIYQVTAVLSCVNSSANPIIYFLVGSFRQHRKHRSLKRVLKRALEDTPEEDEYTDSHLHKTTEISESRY
As to the kind of experiment: calcium-mobilization assay (FLEXstation, Fura-2/AM) in HEK-MrgC11 cells. Type of assay: cell-based. As to the method:
as §4, §5, §6, §7

Where [3] appears, read: Table 1, HEK-MrgA1 cells, FLEXstation assay, means ± SEM, triplicate, Inactive = no activation detected at concentrations up to 10 mM.
[4] abbreviates: Table 1, HEK-MrgC11 cells, FLEXstation assay, means ± SEM, triplicate, Inactive = no activation detected at concentrations up to 10 mM, read-out: EC50 MrgC11.

Entries after “also recorded” stand apart in the source; their conditions may differ. Where two headings read alike, the source gives them in different places. Where no end group is shown, it is not given here.

With `C/C=C(/C)C(=O)O[C@H]1C(C)=C2[C@H]([C@@H]1OC(=O)CCCCCCC)[C@@](C)(OC(C)=O)C[C@H](OC(=O)CCC)[C@@]1(O)[C@H]2OC(=O)[C@@]1(C)O` [TG, thapsigargin], the “effect on FLRFa-induced calcium response” value in assay [1] is on record as “prevents; also recorded: blocked the response”. Besides, the “effect on γ2-MSH-induced calcium response” value in assay [2] was “prevents; also recorded: blocked the response”.

Consider `COc1ccc2c(c1)CC[C@@H]1[C@@H]2CC[C@]2(C)[C@@H](NCCCCCCN3C(=O)C=CC3=O)CC[C@@H]12` [U73122], for which, in assay [1], the “effect on FLRFa-induced calcium response” value is given as “blocked; also recorded: completely inhibited”. The “effect on γ2-MSH-induced calcium response” value in assay [2] is listed as “blocked; also recorded: completely inhibited”.

With `COc1ccc2c(c1)CC[C@@H]1[C@@H]2CC[C@]2(C)[C@@H](NCCCCCCN3C(=O)CCC3=O)CC[C@@H]12` [U73343], the “effect on FLRFa-induced calcium response” value in assay [1] was “did not significantly affect”. Besides, the “effect on γ2-MSH-induced calcium response” value in assay [2] is “did not significantly affect”.

Turning to `CSCC[C@H](NC(=O)[C@@H](NC(=O)[C@@H](N)Cc1ccc(O)cc1)C(C)C)C(=O)NCC(=O)N[C@@H](Cc1c[nH]cn1)C(=O)N[C@@H](Cc1ccccc1)C(=O)N[C@@H](CCCNC(=N)N)C(=O)N[C@@H](Cc1c[nH]c2ccccc12)C(=O)N[C@@H](CC(=O)O)C(=O)N[C@@H](CCCNC(=N)N)C(=O)N[C@@H](Cc1ccccc1)C(N)=O` [γ1-MSH], on MrgA1 (setting [3]), the “EC50 MrgA1” value was “Inactive”. Besides, the EC50 (usually the concentration needed to bring the measured effect to its halfway point) on MrgC11 (setting [4]) was found to be 17 ± 3 nM.

Regarding AGEGLNSQFWSLAAPQRF-NH2 [NPAF], on MrgA1 (setting [3]), the “EC50 MrgA1” value was “Inactive”. Further, the EC50 on MrgC11 came to 282 ± 30 nM.

In the case of IRPKLKWDNQKRYG [Dynnorphin-14], the “EC50 MrgA1” value at MrgA1 (setting [3]) is “Inactive”. The EC50 at MrgC11 turned out to be 22 ± 1 nM.

Turning to KHEYLRF-NH2 [AF-2], at MrgA1 (setting [3]), the “EC50 MrgA1” value was “Inactive”. The EC50 on MrgC11 was determined as 130 ± 24 nM.

On to SGQSWRPQGRF-NH2 [ACEP-1], for which, at MrgA1 (setting [3]), the “EC50 MrgA1” value is “Inactive”. In addition, on MrgC11 (setting [4]), the EC50 was 46 ± 12 nM.

On to TPDINPAWYTGRGIRPVGRF-NH2 [PrRP-20], for which the “EC50 MrgA1” value on MrgA1 (setting [3]) was “Inactive”. Also, the EC50 on MrgC11 (setting [4]) was 144 ± 18 nM.

With VGRPEWWMDYQKRY-NH2 [BAM-15-amide], the concentration giving a half-maximal response (EC50) amounted to 8770 nM on MrgA1 (Table 1, HEK-MrgA1 cells, FLEXstation assay, means ± SEM, triplicate, Inactive = no activation detected at concentrations up to 10 mM, read-out: EC50 MrgA1) and 479 ± 14 nM on MrgC11 (setting [4]).

YGGFMRF-NH2 [Met-ENK-RFamide]: the EC50 on MrgA1 was 5250 nM; at MrgC11 it was 133 ± 20 nM.

For YGGFMRF-OH [Met-Enk-RF], the “activation of MrgA1 (in words)” value at MrgA1 (HEK-MrgA1 cells, calcium response) was “complete loss of activity”. Moreover, the “EC50 MrgA1” value on MrgA1 (setting [3]) is given as “Inactive”. Moreover, the EC50 on MrgC11 was 545 ± 19 nM.

On to YGGFMRRVGRPEWWMDYQKRYGGFL [BAM3200], for which the EC50 is more than 10000 nM at MrgA1 and 300 ± 124 nM at MrgC11.
